Laboratory results from patent US11319304B2, “Pyridine quinoline compounds as MGLUR4 allosteric potentiators, compositions, and methods of treating neurological dysfunction” (Vanderbilt University, priority 2017, dated 2022).

target: mGluR4 (Homo sapiens, UniProt Q14833); assay: mGlu4 PAM potentiation assay, CHO cells transfected with human mGluR4, Ca2+-sensitive dye fluorescence; assay type: cell-based
Experimental: The disclosed compounds and compositions can be evaluated for their ability to act as a potentiator of metabotropic glutamate receptor activity, in particular mGluR4 activity, by any suitable known methodology known in the art. For example, Chinese Hamster Ovary (CHO) cells transfected with human mGluR4 or HEK cells co-transfected with rat mGluR4 and the G-protein regulated Inwardly Rectifying Potassium channel (GIRK) were plated in clear bottom, assay plates for assay in a Hamamatsu FDSS Fluorometric Plate Reader. The cells were loaded with either a Ca2+-sensitive fluorescent dye or the thallium responsive dye and the plates were washed and placed into a suitable kinetic plate reader. For human mGluR4 assays, a fluorescence baseline was established for 3-5 seconds, the disclosed compounds were then added to the cells, and the response in cells was measured. Approximately two and a half minutes later, a concentration of mGluR4 orthosteric agonist (e.g. glutamate, L-AP4, or L-SOP) eliciting approximately 20% (EC20) of the maximal agonist response was added to the cells, and the response was measured. Two minutes later, a concentration of mGluR4 agonist (e.g. glutamate, L-AP4, or L-SOP) eliciting 80% (EC80) of the maximal agonist response was added to the cells, and the response was measured. For rat mGluR4/GIRK experiments, a baseline was established for approximately five seconds, disclosed compounds were added, and either an EC20 or EC80 concentration of agonist was added approximately two and one half minutes later. Potentiation or antagonism of the agonist response of mGluR4 by the disclosed compounds was observed as an increase or decrease in response to the EC20 concentration of agonist in the presence of compound compared to the response to agonist in the absence of compound. Similarly, potentiation or antagonism of the agonist response of mGluR4 by the disclosed Compounds was observed as an increase or decrease in response to the EC80 concentration of agonist in the presence of compound compared to the response to agonist in the absence of compound.
The above described assay operated in two modes. In the first mode, a range of concentrations of the disclosed compounds are added to cells, followed by a single fixed concentration of agonist. If the compound acts as a potentiatior, an EC50 value for potentiation and a maximum extent of potentiation by the compound at this concentration of agonist is determined by non-linear curve fitting. If the compound acts as an antagonist, an IC50 value is determined by non-linear curve fitting. In the second mode, several fixed concentrations of the disclosed compounds are added to various wells on a plate, followed by a range in concentrations of agonist for each concentration of disclosed compound. The EC50 values for the agonist at each concentration of compound are determined by non-linear curve fitting. A decrease in the EC50 value of the agonist with increasing concentrations of the sample compound (a leftward shift of the agonist concentration-response curve) is an indication of the degree of mGluR4 potentiation at a given concentration of the sample compound. A decrease in the maximal response of the agonist with increasing concentrations of the sample compounds, with or without a rightward shift in agonist potency, is an indication of the degree of antagonism at mGluR4. The second mode also indicates whether the sample compounds also affect the maximum response to mGluR4 to agonists.

Chain of mGluR4 (Q14833 33-912 limits assumed): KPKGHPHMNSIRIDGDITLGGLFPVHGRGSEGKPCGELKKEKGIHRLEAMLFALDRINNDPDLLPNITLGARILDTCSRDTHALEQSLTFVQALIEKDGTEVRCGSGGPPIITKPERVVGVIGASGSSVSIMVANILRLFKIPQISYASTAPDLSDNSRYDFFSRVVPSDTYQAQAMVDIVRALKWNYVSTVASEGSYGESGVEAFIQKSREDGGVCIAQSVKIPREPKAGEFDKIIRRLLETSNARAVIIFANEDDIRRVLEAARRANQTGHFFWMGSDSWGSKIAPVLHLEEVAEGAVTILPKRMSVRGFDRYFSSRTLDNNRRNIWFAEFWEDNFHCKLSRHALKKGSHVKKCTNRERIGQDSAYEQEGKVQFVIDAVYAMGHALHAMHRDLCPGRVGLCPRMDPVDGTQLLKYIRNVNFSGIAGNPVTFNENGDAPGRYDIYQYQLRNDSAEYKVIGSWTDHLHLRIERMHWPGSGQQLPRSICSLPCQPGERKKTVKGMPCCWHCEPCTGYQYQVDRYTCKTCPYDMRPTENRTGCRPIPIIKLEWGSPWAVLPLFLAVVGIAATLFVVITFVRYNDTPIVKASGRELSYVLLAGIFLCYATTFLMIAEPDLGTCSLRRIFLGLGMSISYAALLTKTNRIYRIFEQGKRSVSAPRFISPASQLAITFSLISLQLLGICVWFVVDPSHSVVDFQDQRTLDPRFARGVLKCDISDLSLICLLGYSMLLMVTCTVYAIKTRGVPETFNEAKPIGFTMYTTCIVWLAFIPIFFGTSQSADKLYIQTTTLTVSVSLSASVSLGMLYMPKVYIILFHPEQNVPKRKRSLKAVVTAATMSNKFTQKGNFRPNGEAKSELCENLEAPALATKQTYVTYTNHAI

EC50 [nM] | Compound
56 | O=C(Nc1ccc2c(OCC3CCOCC3)nccc2c1)c1ccccn1 [Compound 1]
108 | Nc1cccnc1C(=O)Nc1ccc2c(OCC3CCOCC3)nccc2c1 [Compound 2]
436 | CCOCCOc1nccc2cc(NC(=O)c3ccccn3)ccc12 [Compound 3]
354 | CCOCCOc1nccc2cc(NC(=O)c3ncccc3N)ccc12 [Compound 4]
229 | CCOCCOc1nccc2cc(NC(=O)c3ncccc3O)ccc12 [Compound 5]
166 | CO[C@H](C)COc1nccc2cc(NC(=O)c3ccccn3)ccc12 [Compound 6]
152 | CO[C@H](C)COc1nccc2cc(NC(=O)c3ncccc3N)ccc12 [Compound 7]
159 | O=C(Nc1ccc2c(OCC3CCCCO3)nccc2c1)c1ccccn1 (stereo not drawn) [Compound 8]
242 | Nc1cccnc1C(=O)Nc1ccc2c(OCC3CCCCO3)nccc2c1 (stereo not drawn) [Compound 9]
529 | Nc1cccnc1C(=O)Nc1ccc2c(O[C@H]3CCOC3)nccc2c1 [Compound 10]
883 | O=C(Nc1ccc2c(O[C@H]3CCOC3)nccc2c1)c1ncccc1O [Compound 11]
411 | O=C(Nc1ccc2c(OC3CCOCC3)nccc2c1)c1ccccn1 [Compound 12]
290 | Nc1cccnc1C(=O)Nc1ccc2c(OC3CCOCC3)nccc2c1 [Compound 13]
331 | O=C(Nc1ccc2c(OC3CCOCC3)nccc2c1)c1ncccc1O [Compound 14]
59.5 | O=C(Nc1ccc2c(OCC3CCOC3)nccc2c1)c1ccccn1 (stereo not drawn) [Compound 15]
71.4 | Nc1cccnc1C(=O)Nc1ccc2c(OCC3CCOC3)nccc2c1 (stereo not drawn) [Compound 16]
56.3 | O=C(Nc1ccc2c(OCC3CCOC3)nccc2c1)c1ncccc1O (stereo not drawn) [Compound 17]
262 | O=C(Nc1ccc2c(OCC3CCOC3)nccc2c1)c1ncccc1F (stereo not drawn) [Compound 18]
339 | O=C(Nc1ccc2c(OCC3CCOC3)nccc2c1)c1ncccc1Cl (stereo not drawn) [Compound 19]
739 | COCCOc1nccc2cc(NC(=O)c3ccccn3)ccc12 [Compound 20]
227 | COCCOc1nccc2cc(NC(=O)c3ncccc3N)ccc12 [Compound 21]
502 | COCCOc1nccc2cc(NC(=O)c3ncccc3O)ccc12 [Compound 22]
146 | CC1(C)CC(Oc2nccc3cc(NC(=O)c4ccccn4)ccc23)CCO1 (stereo not drawn) [Compound 23]
310 | CC1(C)CC(Oc2nccc3cc(NC(=O)c4ncccc4N)ccc23)CCO1 (stereo not drawn) [Compound 24]
147 | CC1(C)CC(Oc2nccc3cc(NC(=O)c4ncccc4O)ccc23)CCO1 (stereo not drawn) [Compound 25]

EC50 [nM] | Compound
264 | CC(C)OCCOc1nccc2cc(NC(=O)c3ccccn3)ccc12 [Compound 26]
286 | CC(C)OCCOc1nccc2cc(NC(=O)c3ncccc3N)ccc12 [Compound 27]
419 | CC(C)(C)OCCOc1nccc2cc(NC(=O)c3ccccn3)ccc12 [Compound 28]
794 | CC(C)(C)OCCOc1nccc2cc(NC(=O)c3ncccc3N)ccc12 [Compound 29]
493 | CC(C)(C)OCCOc1nccc2cc(NC(=O)c3ncccc3O)ccc12 [Compound 30]
246 | CC1(COc2nccc3cc(NC(=O)c4ccccn4)ccc23)CCOCC1 [Compound 31]
325 | CC1(COc2nccc3cc(NC(=O)c4ncccc4N)ccc23)CCOCC1 [Compound 32]
269 | CC1(COc2nccc3cc(NC(=O)c4ncccc4O)ccc23)CCOCC1 [Compound 33]
115 | CC1(C)CC(COc2nccc3cc(NC(=O)c4ccccn4)ccc23)CCO1 (stereo not drawn) [Compound 34]
227 | CC1(C)CC(COc2nccc3cc(NC(=O)c4ncccc4N)ccc23)CCO1 (stereo not drawn) [Compound 35]
940 | CC1(C)CC(Oc2nccc3cc(NC(=O)c4ccccn4)ccc23)C(C)(C)O1 (stereo not drawn) [Compound 36]
88.6 | CC1CC(COc2nccc3cc(NC(=O)c4ccccn4)ccc23)CCO1 (stereo not drawn) [Compound 37]
135 | CC1CC(COc2nccc3cc(NC(=O)c4ncccc4N)ccc23)CCO1 (stereo not drawn) [Compound 38]
302 | CC1CC(COc2nccc3cc(NC(=O)c4ncccc4O)ccc23)CCO1 (stereo not drawn) [Compound 39]
183 | O=C(Nc1ccc2c(OC3CCOCC3F)nccc2c1)c1ccccn1 (stereo not drawn) [Compound 40]
83.6 | Nc1cccnc1C(=O)Nc1ccc2c(OC3CCOCC3F)nccc2c1 (stereo not drawn) [Compound 41]
92.2 | O=C(Nc1ccc2c(OC3CCOCC3F)nccc2c1)c1ncccc1O (stereo not drawn) [Compound 42]
908 | CC1CC(Oc2nccc3cc(NC(=O)c4ccccn4)ccc23)CCO1 (stereo not drawn) [Compound 43]
804 | CC1CC(Oc2nccc3cc(NC(=O)c4ncccc4N)ccc23)CCO1 (stereo not drawn) [Compound 44]
447 | CC1CC(Oc2nccc3cc(NC(=O)c4ncccc4O)ccc23)CCO1 (stereo not drawn) [Compound 45]
339 | CC1COCC1COc1nccc2cc(NC(=O)c3ccccn3)ccc12 (stereo not drawn) [Compound 46]
456 | CC1COCC1COc1nccc2cc(NC(=O)c3ncccc3N)ccc12 (stereo not drawn) [Compound 47]
452 | CC1(C)CC(COc2nccc3cc(NC(=O)c4ccccn4)ccc23)CO1 (stereo not drawn) [Compound 48]
665 | CC1(C)CC(COc2nccc3cc(NC(=O)c4ncccc4N)ccc23)CO1 (stereo not drawn) [Compound 49]
364 | CO[C@@H](C)COc1nccc2cc(NC(=O)c3ccccn3)ccc12 [Compound 51]

EC50 [nM] | Compound
288 | CO[C@@H](C)COc1nccc2cc(NC(=O)c3ncccc3N)ccc12 [Compound 52]
244 | CO[C@@H](C)COc1nccc2cc(NC(=O)c3ncccc3O)ccc12 [Compound 53]
915 | O=C(Nc1ccc2c(OC3CCSC3)nccc2c1)c1ccccn1 (stereo not drawn) [Compound 54]
634 | Nc1cccnc1C(=O)Nc1ccc2c(OC3CCS(=O)(=O)C3)nccc2c1 (stereo not drawn) [Compound 55]
210 | O=C(Nc1ccc2c(OCC3CCOC3)nccc2c1)c1nccs1 (stereo not drawn) [Compound 56]
159 | O=C(Nc1ccc2c(OCC3CCOC3)nccc2c1)c1ccsn1 (stereo not drawn) [Compound 57]
217 | O=C(Nc1ccc2c(OCC3CCOC3)nccc2c1)c1ncc[nH]1 (stereo not drawn) [Compound 58]
817 | Cn1ccnc1C(=O)Nc1ccc2c(OCC3CCOC3)nccc2c1 (stereo not drawn) [Compound 59]
82.9 | O=C(Nc1ccc2c(OCC3CCOC3)ncc(F)c2c1)c1ccccn1 (stereo not drawn) [Compound 60]
114 | Nc1cccnc1C(=O)Nc1ccc2c(OC[C@@H]3CCOC3)nccc2c1 [Compound 61]
63 | Nc1cccnc1C(=O)Nc1ccc2c(OC[C@H]3CCOC3)nccc2c1 [Compound 62]
88.7 | Nc1cccnc1C(=O)Nc1ccc2c(OCC3CCOC3)ncc(F)c2c1 (stereo not drawn) [Compound 63]
144 | O=C(Nc1ccc2c(OCC3CCOCC3)ncc(F)c2c1)c1ccccn1 [Compound 65]
152 | Nc1cccnc1C(=O)Nc1ccc2c(OCC3CCOCC3)ncc(F)c2c1 [Compound 66]
246 | O=C(Nc1ccc2c(OCC3CCOCC3)ncc(F)c2c1)c1ncccc1O [Compound 67]
90.5 | Nc1cccnc1C(=O)Nc1ccc2c(OCC3COCCO3)ncc(F)c2c1 (stereo not drawn) [Compound 68]
421 | O=C(Nc1ccc2c(OCC3COCCO3)ncc(F)c2c1)c1ccccn1 (stereo not drawn) [Compound 69]
710 | O=C(Nc1ccc2c(OCC3COCCO3)ncc(F)c2c1)c1ncccc1O (stereo not drawn) [Compound 70]
493 | Nc1cccnc1C(=O)Nc1ccc2c(O[C@H]3CCOC3)ncc(F)c2c1 [Compound 71]
211 | O=C(Nc1ccc2c(OCC3CCOC3)nccc2c1)c1ccc(F)cn1 (stereo not drawn) [Compound 72]
992 | O=C(Nc1ccc2c(OCC3CCOC3)nccc2c1)c1ncc(F)cc1F (stereo not drawn) [Compound 73]
800 | O=C(Nc1ccc2c(OCC3CCOC3)nccc2c1)c1nc(F)ccc1F (stereo not drawn) [Compound 74]
715 | O=C(Nc1ccc2c(NC3CC(F)(F)C3)nccc2c1)c1ccccn1 [Compound 75]
616 | CC1(C)CC(Nc2nccc3cc(NC(=O)c4ncccc4N)ccc23)CCO1 (stereo not drawn) [Compound 76]
922 | CC1(C)COCCC1Nc1nccc2cc(NC(=O)c3ncccc3N)ccc12 (stereo not drawn) [Compound 77]
